According to patent publication US10500288B2, “Cytotoxic HEXIM1 peptides and uses thereof” (AGENCY FOR SCIENCE, TECHNOLOGY AND RESEARCH, priority 2015, dated 2019):
Square brackets hold non-standard residues; d marks the D form. Ends that are not written are not given here. Peptide text beside a SMILES is read from it.

Columns and labels:
[1] = system: HeLa cells; test: Cell viability (Cell-Titer Glo) in HeLa cells; type: cell-based, human; conditions: overnight, various concentrations
Method: (§1) Human cell lines including HeLa, HEK293, MCF7, MDA-MB-231, CHO-K1, OPM-2, and WI-38 were obtained from American Type Culture Collection. AML2 and AML3 cells were purchased from Deutsche Sammlung von Mikroorganismen und Zellkulturen. HCT116 p53+/+ and p53−/− cells were kindly given by Dr. Bert Vogelstein. Primary human foreskin fibroblasts (HFF) were obtained from Dr. Mark Stinski. […] MDA-MB-231 and OPM-2 cells were cultured in RPMI-1640 (Gibco) containing 10% FBS and 1% penicillin/streptomycin. All cells were routinely maintained in a 37° C. incubator with 5% CO2.
(§2) Cells were plated in clear-bottomed white walled 96-well plates (Corning) and incubated overnight. Cells were treated with indicated peptides in 1% FBS-containing media for overnight or indicated timings at 37° C. Cell viability was measured with CellTiter-Glo reagent (Promega) according to the manufacturer's instructions. For cytotoxicity assay, cells were plated in black walled 96-well plates (Corning) to allow them to adhere overnight. Upon treatment with a pan-caspase inhibitor, z-VAD-Fmk ([…]) (Sigma) and subsequent treatment with LTV-tagged peptides, cytotoxicity induced was determined by CellTox cytotoxicity assay (Promega) 30 minutes after addition of peptides according to the manufacturer's instructions. Luminescence was determined using an Infinite 200 multiplate reader (Tecan).

[2] = system: HEK293 cells; test: Cell viability (Cell-Titer Glo) in HEK293 cells; type: cell-based, human; conditions: HEK293 normal cells; overnight, various concentrations
Method: as §1, §2

[3] = system: human foreskin fibroblasts (HFF); test: Cell viability (Cell-Titer Glo) in human foreskin fibroblasts; type: cell-based; conditions: HFF normal fibroblasts; overnight, various concentrations
Method: as §1, §2

[4] = system: MCF7 cells; test: CellTox cytotoxicity assay with or without z-VAD-Fmk; type: cell-based; conditions: 30 μM, thirty minutes at 37° C.
Method: HCT116 (p53 WT) and HCT116 (p53 KO) cells were cultured on glass slides overnight, treated with vehicle control (0.5% dimethyl sulfoxide (DMSO)) or the indicated FGF peptides (30 μM). Time-lapse DIC imaging highlights dynamic morphological changes in treated HCT116 cells by spinning disk confocal microscopy. […] In contrast, FGF-BR peptide rapidly induces drastic changes to the cell morphology with rupturing of the plasma membrane accompanied with damages to the nuclear membrane and abnormalities to the nucleolus in both cell types. (B) cytotoxicity fluorescence plots of breast cancer cells MCF7 showing the effect of pan-caspase inhibitor z-VAD-Fmk on cells treated with LTV-tagged BR peptide. […] Data representative of at least three independent experiments performed in triplicate were shown with values expressed as mean±SD.
as §2, with “Cells were treated with indicated peptides in 1% FBS-containing media for overnight or indicated timings at 37° C.” left out, “For cytotoxicity assay, cells were plated in black walled 96-well plates (Corning) to allow them to adhere overnight.” left out

[5] = system: HCT116 (p53 WT) cells; test: Time-lapse DIC live cell imaging, HCT116 (p53 WT); type: cell-based, human; conditions: 30 μM, within minutes
Method: (§3) HCT116 (p53 WT) and HCT116 (p53 KO) cells were cultured on glass slides overnight, treated with vehicle control (0.5% dimethyl sulfoxide (DMSO)) or the indicated FGF peptides (30 μM). Time-lapse DIC imaging highlights dynamic morphological changes in treated HCT116 cells by spinning disk confocal microscopy. […] In contrast, FGF-BR peptide rapidly induces drastic changes to the cell morphology with rupturing of the plasma membrane accompanied with damages to the nuclear membrane and abnormalities to the nucleolus in both cell types. (B) cytotoxicity fluorescence plots of breast cancer cells MCF7 showing the effect of pan-caspase inhibitor z-VAD-Fmk on cells treated with LTV-tagged BR peptide. LTV is a breast cancer cell targeting peptide. MCF7 cells were incubated with or without z-VAD-Fmk (for 90 min) and then with indicated LTV-tagged peptides (30 μM) for thirty minutes at 37° C. Cells treated with LTV-X13 peptide (SEQ ID NO: 14) or vehicles, DMSO (0.5%), were used as negative controls. Treated cells were subjected to the cytotoxicity assay as described in Example 9—Materials and Methods. Data representative of at least three independent experiments performed in triplicate were shown with values expressed as mean±SD.
(§4) The mechanism of cell death induced by the HEXIM1 BR peptide was examined. […]

[6] = system: HCT116 (p53 KO) cells; test: Time-lapse DIC live cell imaging, HCT116 (p53 KO); type: cell-based, human; conditions: 30 μM, within minutes
Method: as §3, §4

[7] = system: undifferentiated 3T3 mouse fibroblast cells
Method: (§7) 2.5×10^4 cells/ml of mouse fibroblast cells 3T3 were cultured in gelatin coated plates in Dulbecco's Modified Eagle Medium (DMEM) supplemented with 10% fetal bovine serum (FBS) and 1% penicillin/streptomycin (Gibco) to reach 100% confluent. The cells were then maintained at 100% confluency by supplementing with fresh media in a 37° C. incubator with 5% CO2 for 3 days. For induction, cells were then cultured in DMI Induction Media (which is DMEM supplemented with 10% fetal bovine serum, 1% penicillin/streptomycin, 0.1% 3-isobutyl-1-methylxanthine (sigma), 0.1% insulin (sigma) and 0.1% dexamethasone (sigma)) for 48 hours. The cells were then cultured in Insulin Induction Media (which is DMEM supplemented with 10% fetal bovine serum, 1% penicillin/streptomycin and 0.1% insulin). The insulin induction media was changed every 2 days until the cells were differentiated to adipose cells.
(§8) A D-form BR peptide with the sequence of [sequence] was tagged to a fat tissue targeting peptide of the sequence [sequence] (ATS peptide, SEQ ID NO: 39) to generate the ATS-BRD peptide of the sequence [sequence]([sequence])D (SEQ ID NO: 40). Both undifferentiated 3T3 cells and differentiated adipose cells were treated with the ATS-BRD peptide. ATS-tagged KLAD peptide was used as a positive control.

[8] = system: differentiated adipose cells (from 3T3)
Method: as §7, §8

[9] = system: HCT116 (p53 WT) cells; test: Cell viability (Cell-Titer Glo) in HCT116 (p53 WT); type: cell-based, human; conditions: overnight, various concentrations
Method: as §1, §2

[10] = system: HCT116 (p53 KO) cells; test: Cell viability (Cell-Titer Glo) in HCT116 (p53 KO); type: cell-based, human; conditions: overnight, various concentrations
Method: as §1, §2

[11] = target: T1, NPM (Homo sapiens, UniProt P06748); test: Immunofluorescence of NPM sub-cellular localization, HCT116 (p53 WT); type: cell-based; conditions: 30 μM
T1 construct: FGF-tagged BR peptide alters the sub-cellular localization and protein level of endogenous NPM; endogenous in cells; host or cells: HCT116 (p53 WT) and HCT116 (p53 KO)
Method: (§5) (A) representative immunofluorescence images showing the sub-cellular localization of α-NPM (bar represents 10 μm). HCT116 (p53 WT) and HCT116 (p53KO) cells were cultured on glass slides overnight, treated with FGF-X13 or FGF-BR (30 μM). Cells treated with FGF-X13 peptide or vehicle, DMSO (0.5%), was used as controls. Treated cells were immunostained with an anti-NPM antibody and analyzed by laser scanning confocal microscopy (Zeiss). Nuclei were visualized by staining with 4′,6-diamidino-2-phenylindole (DAPI).
(§6) For staining with anti-NPM, cultured cells were fixed in 10% neutral buffered formalin (Sigma) for 10 min, and then in methanol for 10 min, washed in PBS and incubated with blocking buffer (PBS containing 0.5% bovine serum albumin) for 1 hour prior to incubation with a mouse anti-NPM antibody (Invitrogen) in blocking buffer for overnight at 4° C. Cells were then incubated with Alexa Fluor 488-conjugated secondary antibody (Jackson Immuno Research Laboratories) for 1 hour, washed three times with PBS and counterstained with 4′,6-diamidino-2-phenylindole (DAPI)-containing mounting solution (Vectashield). Stained cells were examined with a LSM 510 confocal microscope using a 63× objective lens (Zeiss).

[12] = target: T1, NPM; test: Immunofluorescence of NPM sub-cellular localization, HCT116 (p53 KO); type: cell-based; conditions: 30 μM
Method: as §5, §6

[13] = system: MDA-MB-231 cells; test: Cell viability (Cell-Titer Glo) in MDA-MB-231 breast cancer cells; type: cell-based, human; conditions: overnight, different concentrations
Method: as §1, §2

[14] = system: MCF7 cells; test: Cell viability (Cell-Titer Glo) in MCF7 breast cancer cells; type: cell-based, human; conditions: overnight, different concentrations
Method: as §1, §2

T1 sequence (P06748 whole entry): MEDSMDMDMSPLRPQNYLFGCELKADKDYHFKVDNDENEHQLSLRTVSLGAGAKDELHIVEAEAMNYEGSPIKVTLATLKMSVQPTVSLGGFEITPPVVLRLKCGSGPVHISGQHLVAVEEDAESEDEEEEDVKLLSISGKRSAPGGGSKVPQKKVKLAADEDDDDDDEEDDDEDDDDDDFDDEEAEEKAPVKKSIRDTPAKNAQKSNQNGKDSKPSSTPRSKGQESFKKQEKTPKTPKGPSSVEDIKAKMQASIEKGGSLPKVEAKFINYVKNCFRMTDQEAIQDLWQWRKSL

CC(C)C[C@H](NC(=O)[C@H](C)NC(=O)[C@H](CC(C)C)NC(=O)[C@H](CC(C)C)NC(=O)[C@@H](NC(=O)[C@H](C)NC(=O)[C@@H]1CCCN1C(=O)[C@H](CC(C)C)NC(=O)[C@H](CC(C)C)NC(=O)[C@H](C)NC(=O)[C@@H](NC(=O)[C@H](C)NC(=O)[C@H](C)N)C(C)C)C(C)C)C(=O)N[C@@H](CC(C)C)C(=O)N[C@@H](C)C(=O)N1CCC[C@H]1C(=O)N[C@@H](CCC(N)=O)C(=O)N[C@@H](CC(C)C)C(=O)NCC(=O)N[C@@H](CCCCN)C(=O)N[C@@H](CCCCN)C(=O)N[C@@H](CCCCN)C(=O)N[C@@H](Cc1c[nH]cn1)C(=O)N[C@@H](CCCNC(=N)N)C(=O)N[C@@H](CCCNC(=N)N)C(=O)N[C@@H](CCCNC(=N)N)C(=O)N1CCC[C@H]1C(=O)N[C@@H](CO)C(=O)N[C@@H](CCCCN)C(=O)N[C@@H](CCCCN)C(=O)N[C@@H](CCCCN)C(=O)N[C@@H](CCCNC(=N)N)C(=O)N[C@@H](Cc1c[nH]cn1)C(=O)N[C@@H](Cc1c[nH]c2ccccc12)C(=O)O [FGF-BR] (H-AAVALLPAVLLALLAPQLGKKKHRRRPSKKKRHW-OH)
cytotoxicity (cell viability) [1]: Cytotoxicity was also observed | cytotoxicity (cell viability) [2]: Comparable cytotoxicity | cytotoxicity (cell viability) [3]: Comparable cytotoxicity

CC(C)C[C@H](NC(=O)[C@H](CCC(N)=O)NC(=O)CNC(=O)[C@H](CS)NC(=O)CNC(=O)[C@H](Cc1ccc(O)cc1)NC(=O)[C@H](Cc1c[nH]c2ccccc12)NC(=O)[C@@H]1CCCN1C(=O)[C@H](CO)NC(=O)[C@@H](NC(=O)[C@@H](NC(=O)[C@@H](N)CC(C)C)[C@@H](C)O)C(C)C)C(=O)NCC(=O)N[C@@H](CCCCN)C(=O)N[C@@H](CCCCN)C(=O)N[C@@H](CCCCN)C(=O)N[C@@H](Cc1c[nH]cn1)C(=O)N[C@@H](CCCNC(=N)N)C(=O)N[C@@H](CCCNC(=N)N)C(=O)N[C@@H](CCCNC(=N)N)C(=O)N1CCC[C@H]1C(=O)N[C@@H](CO)C(=O)N[C@@H](CCCCN)C(=O)N[C@@H](CCCCN)C(=O)N[C@@H](CCCCN)C(=O)N[C@@H](CCCNC(=N)N)C(=O)N[C@@H](Cc1c[nH]cn1)C(=O)N[C@@H](Cc1c[nH]c2ccccc12)C(=O)O [LTV-BR] (H-LTVSPWYGCGQLGKKKHRRRPSKKKRHW-OH)
cytotoxicity (cell viability) [3]: does not show such non-specific cytotoxicity | cytotoxicity fluorescence [4]: significant cytotoxic effect

CC(C)C[C@H](NC(=O)[C@H](CCCCN)NC(=O)CNC(=O)[C@H](CS)NC(=O)CNC(=O)[C@H](Cc1ccc(O)cc1)NC(=O)[C@H](Cc1c[nH]c2ccccc12)NC(=O)[C@@H]1CCCN1C(=O)[C@H](CO)NC(=O)[C@@H](NC(=O)[C@@H](NC(=O)[C@@H](N)CC(C)C)[C@@H](C)O)C(C)C)C(=O)N[C@@H](C)C(=O)N[C@@H](CCCCN)C(=O)N[C@@H](CC(C)C)C(=O)N[C@@H](C)C(=O)N[C@@H](CCCCN)C(=O)N[C@@H](CCCCN)C(=O)N[C@@H](CC(C)C)C(=O)N[C@@H](C)C(=O)N[C@@H](CCCCN)C(=O)N[C@@H](CC(C)C)C(=O)N[C@@H](C)C(=O)N[C@@H](CCCCN)C(=O)O [LTV-KLA, reference compound] (H-LTVSPWYGCGKLAKLAKKLAKLAK-OH)
cytotoxicity (cell viability) [3]: non-specific killing

AAVALLPAVLLALLAP [FGF, cell membrane-translocating peptide derived from Kaposi fibroblast growth factor]
morphological changes [5]: No effects were detected | morphological changes [6]: No effects were detected

CKGGRAKDCGG(QLGKKKHRRRPSKKKRHW)D (CKGGRAKDCGG[dQ][dL]G[dK][dK][dK][dH][dR][dR][dR][dP][dS][dK][dK][dK][dR][dH][dW]; cysteine pairing not given here) [ATS-BRD]
cytotoxic effect (cell viability) [7]: no cytotoxic effect | cytotoxic effect (cell viability) [8]: significant cytotoxic effect

FGF-BR-ILAA: FGF-fused BR peptide with KHRR motif mutated to ILAA (AAVALLPAVLLALLAPQLGKKILAARPSKKKRHW)
cell death / cell viability [9]: still maintained its killing ability | cell death / cell viability [10]: still maintained its killing ability

FGF-BR-RRR12: FGF-fused BR peptide with all six HDM2 ubiquitinating lysine residues mutated to arginine (AAVALLPAVLLALLAPQLGRRRHRRRPSRRRRHW)
cell death / cell viability [9]: stronger cell toxicity when compared to the wild-type FGF-BR peptide | cell death / cell viability [10]: stronger cell toxicity when compared to the wild-type FGF-BR peptide

FGF-X13: negative control peptide, FGF-tagged X13 (AAVALLPAVLLALLAPMPFSTGKRIMLGE) [reference compound]
cell death / cell viability [9]: no effects | cell death / cell viability [10]: no effects | sub-cellular localization of NPM [11]: Normal nucleolar localization of NPM | sub-cellular localization of NPM [12]: Normal nucleolar localization of NPM

KLA (KLAKLAKKLAKLAK) [reference compound]
effect on cell viability [13]: non-specific killing

LTV-BR-RRR12: breast cancer targeting peptide LTV fused to BR-RRR12 (LTVSPWYGCGQLGRRRHRRRPSRRRRHW)
effect on cell viability [14]: anti-proliferation effects | effect on cell viability [13]: anti-proliferation effects

LTV-X13: LTV-tagged X13 negative control peptide (LTVSPWYGCGMPFSTGKRIMLGE) [reference compound]
effect on cell viability [14]: no effects were detected | effect on cell viability [13]: no effects were detected

QLGKKKHRRRPSKKKRHW (listed as Homo sapiens) [BR, untagged HEXIM1 basic region peptide]
effect on cell viability [14]: no effect on cell viability | effect on cell viability [13]: remained highly viable

QLGRRRHRRRPSRRRRHW (QLGRRRHRRRPSKKKRHW) [BR-RRR12, BR mutant in which all six HDM2 ubiquitinating lysine residues were mutated to arginine]
effect on cell viability [14]: no effect on cell viability | effect on cell viability [13]: remained highly viable

X13: untagged negative control peptide (MPFSTGKRIMLGE) [reference compound]
effect on cell viability [14]: no effect on cell viability | effect on cell viability [13]: no effect on cell viability
